The substances below were run against T1, USP8 Rhod domain (Homo sapiens, UniProt P40818) (assay: Peptide-phage display-based deep mutational scanning (DMS), USP8 Rhod domain). Details: PSSM, library USP8_DMS, days 2,3; position 7.
T1 construct: USP8 Rhod (174–317) (UniProt: P40818); GST (cleaved yes); made in house; host or cells: Escherichia coli BL21-Gold (DE3)
T1 sequence (P40818 174-317): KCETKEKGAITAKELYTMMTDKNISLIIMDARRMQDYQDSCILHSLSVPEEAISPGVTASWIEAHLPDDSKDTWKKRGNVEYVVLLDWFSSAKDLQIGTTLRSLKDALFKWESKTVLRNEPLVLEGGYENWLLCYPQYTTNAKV
Assay type: binding

In order of rising “enrichment_relative_to_wt at position 7 (wt G)” value:
1. KIAA1614_Q5VZ46_569_584 G7L (MERVLGLLSSPLRLLP; UniProt Q5VZ46 569-584, looked up, variant G575L)  -3
2. KIAA1614_Q5VZ46_569_584 G7A (MERVLGALSSPLRLLP; UniProt Q5VZ46 569-584, looked up, variant G7A)  1.68
3. KIAA1614_Q5VZ46_569_584 G7F (MERVLGFLSSPLRLLP; UniProt Q5VZ46 569-584, looked up, variant G7F)  3

In order of falling “proportion of amino acid at position 7 (wt G)” value:
1. KIAA1614_Q5VZ46_569_584 G7F (MERVLGFLSSPLRLLP; UniProt Q5VZ46 569-584, looked up, variant G7F)  0.0448
2. KIAA1614_Q5VZ46_569_584 G7A (MERVLGALSSPLRLLP; UniProt Q5VZ46 569-584, looked up, variant G7A)  0.0259
3. KIAA1614_Q5VZ46_569_584 G7L (MERVLGLLSSPLRLLP; UniProt Q5VZ46 569-584, looked up, variant G575L)  0.00507

Same assay, conditions: PSSM, library USP8_DMS, days 2,3; position 10

“KIAA1614_Q5VZ46_569_584 S10I (MERVLGGLSIPLRLLP; UniProt Q5VZ46 569-584, looked up, variant S10I)” was tested, and the “enrichment_relative_to_wt at position 10 (wt S)” value was -231.

For “KIAA1614_Q5VZ46_569_584 S10I (MERVLGGLSIPLRLLP; UniProt Q5VZ46 569-584, looked up, variant S10I)”, the “proportion of amino acid at position 10 (wt S)” value was 0.00245.

Same assay, conditions: ProP-PD DMS, bait USP8_Rhodanese__P40818_174_317; pair wild-type GMERVLGGLSSPLRLL (wt_00013) vs mutant; positive where wild-type fraction is higher, negative where mutant fraction is higher

In order of rising hit_pair_ratio:
1. GMERVLGGLSSPLVLL  -21.41
2. GMERVLGGLSDPLRLL  -19.71
3. GMERVLGGLSSPLRLM  -1.86
4. GMERVLGGLSSPTRLL  1.41
5. GMERVLGGLSSPWRLL  2.81
6. GMERVLGGLSEPLRLL  15.92
7. GMERVLGGLSSPYRLL  16.65
8. GMERVLGGKSSPLRLL  20.99
9. GMERVLGGLSSPLNLL  38.62
10. GMERVLGGLSSPDRLL  54.66
11. GMERVLGGLSFPLRLL  80.49
12. GMERVLGGLSSPLGLL  107.32
13. GMERVLGGLSSPLELL  107.32
14. GMERVLGGLSSPLRLT  131.67
15. GMERVLGGLSSTLRLL  131.67
16. GMERVLGGLSRPLRLL  321.97
17. GMERVLGGLSSPLRLG  321.97
18. GMERVLGGLASPLRLL  321.97
19. GMERVLGGLSSQLRLL  321.97

Same assay, conditions: ProP-PD pairs, bait USP8_Rhodanese__P40818_174_317; wild-type/mutant pair, wild type KIAA1614 569-584 GMERVLGGLSSPLRLL (wt_00013)

In order of falling hit_pair_ratio:
1. GMERVFGGLSSPLRLL  321.97
2. GMFRVLGGLSSPLRLL  321.97
3. GMVRVLGGLSSPLRLL  160.99
4. GMEWVLGGLSSPLRLL  40.25
5. GMERKLGGLSSPLRLL  30.82
6. IMERVLGGLSSPLRLL  24.34
7. GMPRVLGGLSSPLRLL  21.46
8. GMERILGGLSSPLRLL  20.85
9. GMERVPGGLSSPLRLL  12.38
10. GMSRVLGGLSSPLRLL  9.14
11. GMARVLGGLSSPLRLL  8.89
12. GMERVLHGLSSPLRLL  6.31
13. MMERVLGGLSSPLRLL  6.27
14. GMERLLGGLSSPLRLL  5.91
15. GMERALGGLSSPLRLL  4.69
16. GMERVLGGISSPLRLL  4.20
17. GMERVLSGLSSPLRLL  2.55
18. GMNRVLGGLSSPLRLL  2.27
19. GMERVLGGPSSPLRLL  2.15
20. GMQRVLGGLSSPLRLL  1.88
21. WMERVLGGLSSPLRLL  1.49
22. GMERVLNGLSSPLRLL  -1.21
23. GMERYLGGLSSPLRLL  -2.09
24. GMERVLEGLSSPLRLL  -2.19
25. GMERNLGGLSSPLRLL  -2.85
26. GMERVLGGVSSPLRLL  -2.88
27. GMERVLVGLSSPLRLL  -3.34
28. GNERVLGGLSSPLRLL  -3.41
29. GMERVLMGLSSPLRLL  -3.47
30. GMERHLGGLSSPLRLL  -4.18
31. GMERQLGGLSSPLRLL  -6.89
32. GMERFLGGLSSPLRLL  -9.37
33. GEERVLGGLSSPLRLL  -32.83

Same assay, conditions: bait USP8_Rhodanese__P40818_174_317; wild-type/mutant pair ratio of averaged fractions; negative values where mutant fraction is higher

In order of rising hit_pair_ratio:
1. GLALWEAKMKQLEERA  -19.29
2. GLALWEAKMKQLAEQA  -4.51
3. QMERVLGGLSSPLRLL  -4.33
4. GLALWEAKMKQLVERA  -3.40
5. GLALWEAKMKQLAESA  -3.11
6. TMERVLGGLSSPLRLL  -2.57
7. GLALWEAKMKLLAERA  -2.26
8. GLALWEAKMVQLAERA  -1.44
9. GLALWEAKMKQLAERN  -1.05
10. GLALWEAKMKSLAERA  1.39
11. GLALWEAKMKQLAERS  1.62
12. GLALWEAKMKQLHERA  1.77
13. GLALWEAKMRQLAERA  1.94
14. PMERVLGGLSSPLRLL  1.96
15. GLALWEAKMKQLNERA  17.57
16. GLALWEAKMKMLAERA  23.91
17. GLALWEAKMTQLAERA  29.92
18. GLALWEAKMYQLAERA  31.05
19. GLALWEAKMKQLLERA  31.22
20. GLALWEAKMKQLAERM  33.55
21. GLALWEAKMKTLAERA  33.74
22. GLALWEAKMKQLAENA  55.62
23. GLALWEAKMKQLAERL  72.57
24. GLALWEAKMKWLAERA  221.40
25. GLALWEAKMKILAERA  553.50
26. GLALWEAKMKQLAERR  553.50
27. GLALWEAKMKQMAERA  1107.01
28. GLALWEAKMKQLAERF  1107.01

Same assay, conditions: wild type/mutant pair; bait USP8_Rhodanese__P40818_174_317; vs hit_library_peptide_wt GLALWEAKMKQLAERA; negative where mutant fraction exceeds wild type; ProP-PD pairs (sheet S7.B)

In order of falling hit_pair_ratio:
1. GLAPWEAKMKQLAERA  1107.01
2. GLALWEAQMKQLAERA  1107.01
3. GTALWEAKMKQLAERA  1107.01
4. GLALVEAKMKQLAERA  1107.01
5. GLALHEAKMKQLAERA  1107.01
6. GRALWEAKMKQLAERA  1107.01
7. GLALWEEKMKQLAERA  553.50
8. QLALWEAKMKQLAERA  553.50
9. GLALLEAKMKQLAERA  417.62
10. GKALWEAKMKQLAERA  369.00
11. GLALWEAKFKQLAERA  369.00
12. GLALWEAPMKQLAERA  276.75
13. GLALWEYKMKQLAERA  208.81
14. GLALWEANMKQLAERA  208.81
15. GLALWESKMKQLAERA  208.81
16. GLALWEAKYKQLAERA  123.00
17. GLALWHAKMKQLAERA  123.00
18. GLALWEIKMKQLAERA  123.00
19. NLALWEAKMKQLAERA  107.46
20. GLASWEAKMKQLAERA  101.08
21. GLALWEPKMKQLAERA  87.84
22. GLAAWEAKMKQLAERA  52.20
23. GLWLWEAKMKQLAERA  49.74
24. GLYLWEAKMKQLAERA  27.03
25. GLALWENKMKQLAERA  24.65
26. GLAFWEAKMKQLAERA  21.29
27. GLALMEAKMKQLAERA  16.52
28. GWALWEAKMKQLAERA  11.95
29. GLALWETKMKQLAERA  11.88
30. GLALWEAKAKQLAERA  7.49
31. GLDLWEAKMKQLAERA  -4.35
32. GLAMWEAKMKQLAERA  -5.97
33. GLAIWEAKMKQLAERA  -44.11
